The source of these data is PubChem BioAssay (NCI).

Where “and” joins values, the source holds several entries; their conditions need not be identical. Identical values can stand only once.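 Step 1: Grow cells in 96-well plates. Step 2: Expose to compound for 48 hours at 5 concentrations. Step 3: Interpolate endpoints linearly; if unreached, use highest concentration. The concentration for 50% growth inhibition is given as GI50. Definition used: TGI = concentration required for complete inhibition of growth.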

As a reminder, the GI50 is the concentration that inhibits growth by half. One may read the TGI as the concentration giving total growth inhibition. A higher TGI goes with less potent growth arrest.

Test systems include CCRF-CEM leukemia; HCC-2998 colon; NCI-H226 lung; NCI-H522 lung; OVCAR-8 ovarian; SK-MEL-5 melanoma; SNB-75 CNS; SW-620 colon; TK-10 renal; UACC-62 melanoma.
Holding throughout (assay): DTP human tumour cell line panel, 48 h

With `CCS(=O)(=O)c1ccc(OC)c(Nc2ncc(-c3cccc(-c4ccccc4F)c3)o2)c1`, the GI50 is greater than 25 µM with CCRF-CEM leukemia; greater than 25 µM in the experiment on HCC-2998 colon; 2.24 µM in the experiment on NCI-H226 lung; 10.6 µM in the experiment with NCI-H522 lung; greater than 25 µM with OVCAR-8 ovarian; greater than 14.6 µM with SK-MEL-5 melanoma. The GI50 in the experiment on SNB-75 CNS was 4.77 µM; in the experiment on SW-620 colon it was greater than 25 µM; in the experiment with TK-10 renal, 7.32 µM; with UACC-62 melanoma, greater than 25 µM. Besides, the TGI in the experiment with CCRF-CEM leukemia, in the experiment with HCC-2998 colon, in the experiment on NCI-H226 lung, in the experiment on NCI-H522 lung, in the experiment on OVCAR-8 ovarian and in the experiment on SK-MEL-5 melanoma was greater than 25 µM in each case. Besides, the TGI in the experiment on SNB-75 CNS is 24.3 µM; with SW-620 colon it was greater than 25 µM; in the experiment with TK-10 renal, greater than 25 µM; with UACC-62 melanoma, greater than 25 µM.

For the compound `CCN(CC)CC(O)CNc1ccc(NCC(O)CCl)c2c1C(=O)c1ccccc1C2=O` (stereo unspecified), the total growth inhibition concentration (TGI) in the experiment with CCRF-CEM leukemia came to 11.4 µM; in the experiment with HCC-2998 colon, 21.6 µM; in the experiment with NCI-H226 lung, 25 µM; in the experiment on NCI-H522 lung, 13.5 µM; in the experiment with OVCAR-8 ovarian, 20.6 µM; with SK-MEL-5 melanoma it was 22.1 µM. Moreover, the total growth inhibition concentration (TGI) in the experiment on SNB-75 CNS was determined as 24.9 µM; in the experiment with SW-620 colon it was 14.4 µM; with TK-10 renal, 25.5 µM; in the experiment on UACC-62 melanoma, 29.2 µM.

For the compound `COc1cc(C2=Nc3c/c(=C\c4c(O)[nH]c5ccc(Cl)cc45)ccc3=N2)cc(OC)c1OC`, the GI50 was 2.29 µM with CCRF-CEM leukemia; 4.44 µM with HCC-2998 colon; 10.3 µM with NCI-H226 lung; 3.17 µM with NCI-H522 lung; 1.95 µM in the experiment on OVCAR-8 ovarian; 1.58 µM in the experiment on SK-MEL-5 melanoma. Moreover, the GI50 with SNB-75 CNS is 1.78 µM; in the experiment on SW-620 colon it was 1.98 µM; in the experiment with TK-10 renal, 5.76 µM; in the experiment on UACC-62 melanoma, 1.94 µM. In addition, the concentration for total growth inhibition (TGI) in the experiment with CCRF-CEM leukemia is 8.55 µM; with HCC-2998 colon, 21.8 µM; in the experiment on NCI-H226 lung it was 29.7 µM; with NCI-H522 lung it was 10.7 µM; in the experiment with OVCAR-8 ovarian it was 5.24 µM; in the experiment with SK-MEL-5 melanoma it was 3.55 µM. For the same compound, the concentration for total growth inhibition (TGI) is 10.6 µM in the experiment on SNB-75 CNS, 4.41 µM with SW-620 colon, 17.4 µM with TK-10 renal and 7.97 µM with UACC-62 melanoma.

As for `COC(=O)C1=C(C(=O)Nc2cccnc2)C2OC1(C(Cc1ccccc1)Oc1ccccc1)C1OC21` (stereo unspecified), the 50% growth inhibitory concentration (GI50) with CCRF-CEM leukemia was 0.36 µM; with HCC-2998 colon, 14.7 µM; in the experiment on NCI-H226 lung, 1.92 µM; in the experiment with NCI-H522 lung it was 1.37 µM; with OVCAR-8 ovarian, 7.94 µM; in the experiment on SK-MEL-5 melanoma it was 15.6 µM. Further, the GI50 with SNB-75 CNS is 8.28 µM; in the experiment with SW-620 colon, 1.69 µM; in the experiment with TK-10 renal, 1.51 µM; with UACC-62 melanoma, 3.23 µM. Further, the TGI with CCRF-CEM leukemia worked out at 2.14 µM; in the experiment with HCC-2998 colon, 30.3 µM; with NCI-H226 lung, 4.12 µM; in the experiment with NCI-H522 lung, 2.95 µM; in the experiment with OVCAR-8 ovarian, 22.8 µM; in the experiment on SK-MEL-5 melanoma it was 31.3 µM. Moreover, the total growth inhibition concentration (TGI) in the experiment with SNB-75 CNS came to 21.1 µM; in the experiment on SW-620 colon it was 3.58 µM; in the experiment on TK-10 renal, 2.85 µM; in the experiment with UACC-62 melanoma, 13.1 µM.

Take `CCN1CCN(CCNc2nccc(-c3c(-c4cccc(O)c4)nc4sccn34)n2)S1(=O)=O`: the GI50 is 8.83 µM and 5.52 µM in the experiment on CCRF-CEM leukemia; 32.1 µM and 29.4 µM with HCC-2998 colon; > 32.5 µM and 26.4 µM in the experiment with NCI-H226 lung; 7.65 µM and 4.27 µM in the experiment with NCI-H522 lung; 16.1 µM and 10.9 µM in the experiment on OVCAR-8 ovarian; 5.28 µM and 6.28 µM in the experiment with SK-MEL-5 melanoma. The GI50 was 12.6 µM and 6.84 µM in the experiment on SNB-75 CNS; 21.1 µM and 15.7 µM in the experiment on SW-620 colon; 19.4 µM and 9.68 µM with TK-10 renal; 0.105 µM and 0.0766 µM with UACC-62 melanoma. The TGI is 32.5 µM and 46.1 µM in the experiment with CCRF-CEM leukemia; 32.5 µM and > 100 µM in the experiment on HCC-2998 colon; > 32.5 µM and 84.3 µM with NCI-H226 lung; 29.8 µM and 31.2 µM in the experiment on NCI-H522 lung; 32.5 µM and > 100 µM with OVCAR-8 ovarian; 23.1 µM and 20.7 µM in the experiment on SK-MEL-5 melanoma. Moreover, the TGI in the experiment on SNB-75 CNS is 32.5 µM and > 100 µM; with SW-620 colon, 32.5 µM and 92.5 µM; with TK-10 renal, 32.5 µM and > 100 µM; with UACC-62 melanoma it was 6.11 µM and 4.62 µM.

As to `COc1ccccc1/C=C1\CCC(CN(C)C)C1=O` (stereo unspecified), the total growth inhibition concentration (TGI) is 8.47 µM with CCRF-CEM leukemia; 14.2 µM in the experiment on HCC-2998 colon; 25 µM with NCI-H226 lung; 3.56 µM in the experiment with NCI-H522 lung; 26.3 µM in the experiment on OVCAR-8 ovarian; 30.4 µM with SK-MEL-5 melanoma. The concentration for total growth inhibition (TGI) amounted to 17.8 µM with SNB-75 CNS, 6 µM in the experiment with SW-620 colon, 15.7 µM in the experiment on TK-10 renal and 13.9 µM in the experiment on UACC-62 melanoma.

As for `O=C1C(CN(Cc2ccccc2)Cc2ccccc2)CCCC1CN(Cc1ccccc1)Cc1ccccc1` (stereo unspecified), the total growth inhibition concentration (TGI) in the experiment with CCRF-CEM leukemia is 14.2 µM and > 100 µM; in the experiment with HCC-2998 colon, greater than 100 µM; in the experiment on NCI-H226 lung, greater than 100 µM; with OVCAR-8 ovarian, 43.1 µM and > 100 µM; in the experiment with SK-MEL-5 melanoma, greater than 100 µM; with SNB-75 CNS it was 49.1 µM and > 100 µM. Moreover, the total growth inhibition concentration (TGI) was greater than 100 µM in the experiment on SW-620 colon; 28.3 µM and > 100 µM with TK-10 renal; 45.2 µM and > 100 µM in the experiment with UACC-62 melanoma. Besides, the GI50 in the experiment on OVCAR-8 ovarian is 22.9 µM and > 95.5 µM; with SNB-75 CNS it was 31.1 µM and 76.2 µM; with SW-620 colon it was greater than 100 µM; with TK-10 renal it was 14.7 µM and > 100 µM; in the experiment with UACC-62 melanoma, 29.2 µM and > 100 µM.

As to `O=C(/C=C/c1ccccc1O)c1ccccc1`, the GI50 in the experiment with CCRF-CEM leukemia was 2.64 µM; with HCC-2998 colon, 17.9 µM; in the experiment on NCI-H226 lung, 12.8 µM; in the experiment on NCI-H522 lung, 9.1 µM; in the experiment on OVCAR-8 ovarian, 4.39 µM; in the experiment with SK-MEL-5 melanoma it was 11.5 µM. In addition, the figures for the GI50 with SW-620 colon, with TK-10 renal and in the experiment on UACC-62 melanoma were 1.8 µM, 11.9 µM and 13.1 µM, respectively. In addition, the concentration for total growth inhibition (TGI) came to 8.19 µM in the experiment with CCRF-CEM leukemia; 32.6 µM in the experiment on HCC-2998 colon; 26.1 µM in the experiment on NCI-H226 lung; 22 µM with NCI-H522 lung; 17.7 µM with OVCAR-8 ovarian; 23.9 µM in the experiment on SK-MEL-5 melanoma. Moreover, the concentration for total growth inhibition (TGI) in the experiment with SW-620 colon stood at 3.72 µM; in the experiment on TK-10 renal it was 24.7 µM; in the experiment on UACC-62 melanoma, 25.9 µM.

In the case of `Cn1c(O)c(C=N)c(=O)n(C)c1=O`, the concentration for total growth inhibition (TGI) with CCRF-CEM leukemia, with HCC-2998 colon, in the experiment on NCI-H226 lung, in the experiment with NCI-H522 lung, in the experiment with OVCAR-8 ovarian and in the experiment on SK-MEL-5 melanoma was greater than 100 µM each time. For the same compound, the total growth inhibition concentration (TGI) with SNB-75 CNS, in the experiment on SW-620 colon and with TK-10 renal was greater than 100 µM throughout.
